These results are taken from patent US20250019648A1, “A SPERM EXTENDER MEDIUM” (MEAT & LIVESTOCK AUSTRALIA LIMITED, priority 2021, published 2025).

Data set [1] relates to bovine spermatozoa. The data set can be described thus: Fungicide comparison on bovine sperm motility. The class given is cell-based. The conditions noted are these: Nystatin 100 U/mL, Fluconazole 12.5 mg/L and 25 mg/L; 1, 3, 7, 10 and 14 days at RT in glycine (82.2 mM) medium. An excerpt: Sperm motility was objectively determined with computer assisted sperm analysis (CASA; IVOS, Hamilton Thorne, Danvers, MA) using the following settings; negative phase-contrast optics, recording rate of 60 frames/s, minimum contrast of 70, minimum cell size of 4 pixels, low size gate of 0.17, high size gate of 2.9, low intensity gate of 0.6, high intensity gate of 1.74, non-motile head size of 10 pixels, non-motile head intensity of 135, progressive VAP threshold of 50 μm/s, slow (static) cells VAP threshold of 20 μm/s, slow (static) cells VSL threshold of 0 μm/s and threshold STR of 75%. […] Cells with a VAP greater than that of the mean VAP of progressive cells were considered ‘rapid’. A minimum of 200 spermatozoa in a minimum of five fields were assessed using 20 μm Leja standard count slides (Gytech, Australia) and a stage temperature of 37° C. […]
Semen was collected, processed and stored according as above (Example 2, Section 1.1). Following 1, 3, 7, 10 and 14 days of storage at RT in the base extender solution as described (Example 2, Experiment 2) supplemented with glycine to a final concentration of 82.2 mM (pH of the medium was 7.9), sperm motility was assessed using CASA as above. Data were analysed using JMP v14 software (ANOVA).

The test system of data set [2] is bovine spermatozoa. The data set can be described thus: Effects of medium components on bovine sperm motility after 24 hours at RT (Experiment 2). The class given is cell-based. The conditions noted are these: for total and progressive motilities when 50% of the NaCl was replaced: L-carnitine 100 mM or choline chloride 95 mM; for effect on sperm motility at the 24 h mark as determined by CASA: field conditions, rosiglitazone 0-100 μM, sugar source, coenzyme Q10. An excerpt:
Institutional and New South Wales State Government ethical approval was secured for the use of animal material in this study. This research was based on ejaculates from 17 normozoospermic Angus bulls (between 3 and 7 years of age) of proven fertility, held on institutionally-approved premises at Charles Sturt University ([…], Australia). Semen was collected via electro-ejaculation, and the ejaculate was either left undiluted (Experiment 1) or was immediately diluted (2:1; extender:semen) with INRA96 (Experiments 2 and 3-Sections 2 and 3). […] Equipment and extender medium were maintained at temperatures between 30° C. and 37° C. for the duration of semen collection and dilution. The tubes of extended semen were then held in the laboratory at RT (approx. 20 to 25° C.) for up to 30 min prior to further processing. For Experiment 1, up to 6 mL of the extended semen was either centrifuged directly (700×g for 10 min), or was overlaid on top of BoviPureTM gradient and centrifuged at 700×g for 20 min, and for Experiments 2 and 3 up to 5 mL extended semen was layered on top of PercollTM gradients and centrifuged at 700×g for 30 min. Following centrifugation, the seminal plasma and density gradient media were removed and discarded. Spermatozoa were recovered from the base of the tubes, resuspended in 2 mL BWW and washed via centrifugation (500×g for 5 min) with BWW. These pelleted cells were then resuspended at a concentration of 50×10^6 spermatozoa/mL in the experimental extender media. Sperm motility was objectively determined with computer assisted sperm analysis (CASA; IVOS, Hamilton Thorne, Danvers, MA) using the following settings; negative phase-contrast optics, recording rate of 60 frames/s, minimum contrast of 70, minimum cell size of 4 pixels, low size gate of 0.17, high size gate of 2.9, low intensity gate of 0.6, high intensity gate of 1.74, non-motile head size of 10 pixels, non-motile head intensity of 135, progressive VAP threshold of 50 μm/s, slow (static) cells VAP threshold of 20 μm/s, slow (static) cells VSL threshold of 0 μm/s and threshold STR of 75%. […] Cells with a VAP greater than that of the mean VAP of progressive cells were considered 'rapid'. A minimum of 200 spermatozoa in a minimum of five fields were assessed using 20 μm Leja standard count slides ([…], Australia) and a stage temperature of 37° C.

Data set [3] deals with bovine spermatozoa. Description: Comparison of amino acid osmolytes on bovine sperm motility during liquid storage at RT. The conditions noted are these: for total and progressive motilities compared with other osmolyte treatments: Part 1, 7 days storage at RT, n=10 bulls; for total and progressive motilities compared with other osmolyte treatments / motility by day 14 of storage / loss in motility between 3 and 10 days of storage: 82.2 mM in base solution without NaCl; for motility by day 14 of storage / loss in motility between 3 and 10 days of storage / motility compared with NaCl and choline chloride controls: Part 2; for motility by day 14 of storage / loss in motility between 3 and 10 days of storage: RT; for loss in motility between 3 and 10 days of storage: n=9 bulls; for motility compared with NaCl and choline chloride controls: all time points (3, 7, 10, 14 days) at RT; for capability to prolong bovine sperm motility at room temperature: amino acid as osmolyte in extender medium. The class given is cell-based. An excerpt: Sperm motility was objectively determined with computer assisted sperm analysis (CASA; IVOS, Hamilton Thorne, Danvers, MA) using the following settings; negative phase-contrast optics, recording rate of 60 frames/s, minimum contrast of 70, minimum cell size of 4 pixels, low size gate of 0.17, high size gate of 2.9, low intensity gate of 0.6, high intensity gate of 1.74, non-motile head size of 10 pixels, non-motile head intensity of 135, progressive VAP threshold of 50 μm/s, slow (static) cells VAP threshold of 20 μm/s, slow (static) cells VSL threshold of 0 μm/s and threshold STR of 75%. […] Cells with a VAP greater than that of the mean VAP of progressive cells were considered ‘rapid’. A minimum of 200 spermatozoa in a minimum of five fields were assessed using 20 μm Leja standard count slides (Gytech, Australia) and a stage temperature of 37° C.
Bull semen (animals were housed at Charles Sturt University, Wagga Wagga, NSW, Australia) was collected via electroejaculation, immediately diluted 2:1 (extender:semen) with equine INRA96™ semen extender, and maintained at room temperature (RT) before further processing. Extended semen was then layered onto a discontinuous (45/90%) Percoll™ gradient and centrifuged at 700×g for 30 min to isolate high quality spermatozoa to be used for storage experiments described below. The high-quality pelleted spermatozoa were then resuspended in modified Biggers, Whitter and Whittingham (BWW) medium (Gibb et al., 2014) and washed again via centrifugation (300×g for 5 min). Pelleted spermatozoa were then resuspended in the various formulations described in each experiment, and stored in 5 mL Sarstedt specimen pots at RT (21-23° C.) in the dark until they were assessed.
This study was undertaken in 2 parts: the first was a screening of soluble amino acids (spermatozoa from split ejaculates of n=10 bulls), and the second was to confirm the results of the first part using only the most successful 3 amino acids (spermatozoa from split ejaculates of n=9 bulls). Sodium chloride and choline chloride were used as osmolyte controls.
The base bovine extender solution described above (Example 1, Experiment 3) was utilised for the purposes of these evaluations, with the exception that the 41.1 mM NaCl was not included in the base solution to which either the test amino acid or choline chlorine was added. Test amino acid was added to the base solution to a final concentration of 82.2 mM whilst the controls contained either the NaCl or choline chloride to a final concentration of 41.1 mM. The initial pH of solutions varied between 7-10 and were adjusted to be between 7.5 and 8.0 with either KOH or HCl. All test media were supplemented with 100 U/ml Nystatin to control fungal growth. Sperm motility was assessed as per Example 1.
For Part 1 of the study, motility was evaluated following 7 days liquid storage at room temperature (RT). Motility of spermatozoa was evaluated at 3, 7, 10 and 14 days liquid storage at RT for Part 2 of the study. Data were again analysed using JMP v14 software (ANOVA).

For data set [4] the following is noted: Lide, Handbook of Chemistry and Physics, 72nd Edition; cited from earlier work.

Consider `OC(Cn1cncn1)(Cn1cncn1)c1ccc(F)cc1F` [Fluconazole], for which the “difference in sperm motility between antifungal treatments and control with no antifungal” value in data set [1] is given as “No significant differences”.

On to `C[N+](C)(C)C[C@H](O)CC(=O)[O-]` [L-carnitine], for which the “total and progressive motilities when 50% of the NaCl was replaced” value in data set [2] (24 hours at RT) is “improved”.

With `CC(=O)C(=O)[O-].[Na+]` [Sodium pyruvate], the “difference in sperm motility versus absence of the component” value in data set [2] (0.275 mM to 20 mM, 24 hours at RT) was “No significant difference”.

As to `C[C@H](N)C(=O)O` [alanine], in data set [3], the “total and progressive motilities compared with other osmolyte treatments” value is given as “significantly higher than all other treatments”; the “motility by day 14 of storage” value is on record as “significantly declined”; the “loss in motility between 3 and 10 days of storage” value (“loss” for short) is reported as “did not suffer any significant loss in motility”; the “motility compared with NaCl and choline chloride controls” value is given as “significantly higher than both of the controls”. Further, in data set [4], the “isoelectric point (pI)” value is 6.0.

For `C[N+](C)(C)CCO.[Cl-]` [choline chloride, reference compound], in data set [2] (24 hours at RT), the “total and progressive motilities when 50% of the NaCl was replaced” value is “improved”.

In the case of `COC1=C(OC)C(=O)C(C/C=C(\C)CC/C=C(\C)CC/C=C(\C)CC/C=C(\C)CC/C=C(\C)CC/C=C(\C)CC/C=C(\C)CC/C=C(\C)CC/C=C(\C)CCC=C(C)C)=C(C)C1=O` [coenzyme Q10], in data set [2], the “effect on sperm motility at the 24 h mark as determined by CASA” value (shortened to “effect on sperm motility”) is given as “No significant effects”.

Regarding `N[C@@H](CS)C(=O)O` [cysteine], the “capability to prolong bovine sperm motility at room temperature” value (“capability” below) in data set [3] is “no or only relatively limited capability”. Further, in data set [4], the “isoelectric point (pI)” value is 5.07.

On to `O=C(CO)[C@@H](O)[C@H](O)[C@H](O)CO` [fructose], for which the “effect on sperm motility” value in data set [2] was “No significant effects”.

`NCC(=O)O` [glycine]: in data set [3], the “total and progressive motilities compared with other osmolyte treatments” value is given as “significantly higher than all other treatments”; the “motility by day 14 of storage” value is on record as “significantly declined”; the “loss” value was “did not suffer any significant loss in motility”; the “motility compared with NaCl and choline chloride controls” value is recorded as “significantly higher than both of the controls”. Further, the “isoelectric point (pI)” value in data set [4] is recorded as 5.97.

With `CC[C@H](C)[C@H](N)C(=O)O` [isoleucine], in data set [3], the “capability” value is listed as “no or only relatively limited capability”. Further, the “isoelectric point (pI)” value in data set [4] is 6.02.

As to `CC(C)C[C@H](N)C(=O)O` [leucine], in data set [3], the “capability” value was “no or only relatively limited capability”.

As for `CSCC[C@H](N)C(=O)O` [methionine], the “capability” value in data set [3] was “no or only relatively limited capability”. The “isoelectric point (pI)” value in data set [4] is listed as 5.74.

As for `N[C@@H](Cc1ccccc1)C(=O)O` [phenylalanine], the “capability” value in data set [3] was “no or only relatively limited capability”. Further, the “isoelectric point (pI)” value in data set [4] is 5.48.

As for `O=C(O)[C@@H]1CCCN1` [proline], the “capability” value in data set [3] is reported as “no or only relatively limited capability”. The “isoelectric point (pI)” value in data set [4] is listed as 6.3.

Turning to `OC[C@H]1O[C@H](OC[C@H]2O[C@H](O[C@]3(CO)O[C@H](CO)[C@@H](O)[C@@H]3O)[C@H](O)[C@@H](O)[C@@H]2O)[C@H](O)[C@@H](O)[C@H]1O` [raffinose], in data set [2], the “effect on sperm motility” value is recorded as “No significant effects”.

Turning to `OC[C@H]1O[C@@](CO)(O[C@H]2O[C@H](CO)[C@@H](O)[C@H](O)[C@H]2O)[C@@H](O)[C@@H]1O` [sucrose], the “effect on sperm motility” value in data set [2] is “No significant effects”.

Consider `NCCS(=O)(=O)O` [taurine, 2-aminoethane-1-sulfonic acid], for which, in data set [3], the “total and progressive motilities compared with other osmolyte treatments” value is “significantly higher than all other treatments”. The “total and progressive motility, taurine compared with valine” value in data set [3] (day 3 of liquid storage) was “better total and progressive motility”.

In the case of `N[C@@H](Cc1c[nH]c2ccccc12)C(=O)O` [tryptophan], the “capability” value in data set [3] is reported as “no or only relatively limited capability”. Besides, in data set [4], the “isoelectric point (pI)” value is recorded as 5.89.

For the compound `CC(C)[C@H](N)C(=O)O` [valine], in data set [3], the “total and progressive motilities compared with other osmolyte treatments” value was “substantially better”; the “motility by day 14 of storage” value is recorded as “significantly declined”; the “loss” value was “did not suffer any significant loss in motility”; the “motility compared with NaCl and choline chloride controls” value was “significantly higher than both of the controls”. Besides, the “motility, valine compared with taurine” value in data set [3] (day 14 of liquid storage, data not shown) was “better motility”. In data set [4], the “isoelectric point (pI)” value is reported as 5.96.
